Reference: a melting point compilation (Tetko et al.; mined from patent text by program, amines drawn as free bases though some values may be those of a salt)

With `CN(C(=O)OC(C)(C)C)c1cc(Oc2ccc(-n3ccnc3)cc2)ccc1N` the melting point was 115 to 116 °C. In the case of `CC(=O)Nc1cccc(-c2ccc3nc(-c4cccnc4N)n(-c4ccc(CNC(=O)c5cccc(F)c5)cc4)c3n2)c1`, the melting point is reported as 174 to 187 °C. For `O=C(O)C1(c2ccc(Nc3nc(C4CCCC4)nc4c3CCC4)cc2)CCCC1`, the melting point was 321 to 325 °C. Molecule `N#Cc1ccc(NC(=N)Nc2ccc(C#N)cc2)cc1` has a melting point of 195 to 200 °C. Molecule `COc1cn(-c2cccc(C(F)(F)F)c2)nc(C(C)=O)c1=O` has a melting point of 155 to 156 °C. For `O=Cc1c(-c2ccc(Cl)cc2)sc2ccccc12`, the melting point was 99.7 to 101 °C. `O=C(C(=O)c1cccc(Br)c1)c1cc[nH]c1` gave a melting point of 111 to 113 °C. Work on `CC(=O)Oc1ccc(C(=O)OCC[C@H](C)COC(=O)c2ccc(OC(C)=O)cc2)cc1` yielded a melting point of 46 °C. In the case of `O=C(O)c1cn(-c2ccc(F)cc2)c2c(F)c(N3Cc4cccc(F)c4C3)c(F)cc2c1=O`, the melting point is reported as > 300 °C. Molecule `Cc1cccc(C)c1OCC1CN=C(N)O1` (stereo not drawn) has a melting point of 114 °C. Work on `COc1ccc(-c2nnc(C(Cl)(Cl)Cl)o2)cc1OC` yielded a melting point of 171 to 173 °C. `COc1cccc2c(=O)c(O)coc12` showed a melting point of 180 to 183 °C. `COc1cccc(OC2COc3ccc(OCc4cc(OC)ccn4)cc3C2O)c1` (stereo not drawn) showed a melting point of 165 to 166 °C. With `CC(C)(c1ccc(C(C)(C)c2ccc(O)cc2O)cc1)c1ccc(O)cc1O` the melting point was 110 to 115 °C. Work on `COc1ccc(S(=O)(=O)C2=C(C(=O)NO)CCC2=CCCc2ccccc2)cc1OC` yielded a melting point of 70 to 73 °C. For `CC(C)(C)OC(=O)N[C@@H](CC(=O)OCc1ccccc1)C(=O)N[C@@H](Cc1ccccc1)C(=O)OCc1ccccc1`, the melting point was 93 to 94 °C. For `CC1OC(C)(C)c2cc(-c3ccc(C#N)n3C(=O)OC(C)(C)C)ccc2N1C(=O)OCC1c2ccccc2-c2ccccc21` (stereo not drawn), the melting point was 135 to 136 °C. For `CCOC(=O)CCc1cccc2c(=O)c3cc(C(=O)OC)c(OCCCCC=Cc4ccc(OC)cc4)cc3oc12`, the melting point was 107 to 109 °C. In the case of `Cc1ccccc1Sc1c(O)c2c(Cl)cc(Cl)cc2[nH]c1=O`, the melting point is reported as > 300 °C. In the case of `COC(=O)c1cscc1NC(=O)NCCN1CCN(c2ccccc2OC)CC1`, the melting point is reported as 195 to 199 °C. In the case of `Cc1ccccc1N(C)c1nc(=O)c2cccnc2s1`, the melting point is reported as 208 to 209 °C. Molecule `CCCCCCCCCCCCCCCCCCOC(=O)N(N)C(=O)c1cc(O)ccc1O` has a melting point of 163 °C. In the case of `COc1cccc2c3c(c(=O)[nH]c12)CCCN3c1ccccc1C`, the melting point is reported as 203 to 205 °C. `CNC(=O)c1cccc(NC(=O)Nc2ccccc2)c1` showed a melting point of 209 to 210 °C. `CC(C)CC(NC(=O)OCc1ccccc1)C(=O)NC(Cc1cccc2ccccc12)C(=O)CSCc1ccco1` (stereo not drawn) showed a melting point of 71 to 74 °C. `CC(C)(C)CNC(=O)C1=C(C(=O)Nc2cc(OC3CCCC3)c(Cl)cc2F)CCCC1` showed a melting point of 173 to 175 °C. In the case of `CNc1ccc(OC2CCN(c3ccncc3)CC2)cc1`, the melting point is reported as 161 to 164 °C. In the case of `O=C1CC(O)c2ccccc21` (stereo not drawn), the melting point is reported as 182 to 187 °C. For `COc1ccc(/C=C/[N+](=O)[O-])c(F)c1`, the melting point was 80 to 82 °C. Work on `CC(C)(C)OC(=O)C=CC1C(C(=O)OC(C#N)c2ccc(F)c(Oc3ccccc3)c2)C1(C)C` (stereo not drawn) yielded a melting point of 114 °C. Work on `O=S(=O)(Nc1cccc(CCOCc2csc(-c3ccc(F)c(Cl)c3)n2)c1)C(F)(F)F` yielded a melting point of 141 to 143 °C. In the case of `CC(C)N(C(=O)COc1ccc(-c2ccc(C(=O)O)cc2C(F)(F)F)cc1)C(C)C`, the melting point is reported as 132 to 134 °C. Molecule `N#Cc1ccc(-c2cn(-c3ccc(C#N)cc3)c(C(O)c3ccccc3)n2)cc1` (stereo not drawn) has a melting point of 217 to 222 °C. `COc1cc2c(cc1-c1ccc(F)cc1C)NC(=O)CC(c1cccc(-n3ccnc3)c1)=N2` showed a melting point of 225 °C. For `O=C(Nc1ccc(Oc2cc(Cl)ncn2)cc1)Nc1ccc(Br)c(C(F)(F)F)c1`, the melting point was 179 to 182 °C. Work on `C=C(C)Cc1c(O)cc(C(C)(C)C)c(OC(C)=O)c1C(C)(C)C` yielded a melting point of 102 °C. `COC(=O)c1ccc(Cn2nc(C(N)=O)c3ccccc32)cc1` showed a melting point of 163 to 165 °C. In the case of `COc1ccc([N+](=O)[O-])c(Nc2ccc3cn[nH]c3c2)n1`, the melting point is reported as 261 to 264 °C. In the case of `CCCCCCCc1ccc(-c2nc(-c3ccccc3Cl)nn2C)cc1`, the melting point is reported as 64 to 67 °C. Work on `CCOC(=O)Cc1cc(C)c(C(=O)c2ccc([N+](=O)[O-])cc2)n1C` yielded a melting point of 148 to 149 °C. With `COC(=O)[C@H]1CN(c2cc(F)c(N3CCSCC3)c(F)c2)C(=O)O1` the melting point was 99 to 101 °C. In the case of `Cc1cccc2c1COC(=O)N2`, the melting point is reported as 222 to 226 °C. Molecule `c1ccc(-c2cc(-c3csc(Nc4ccncc4)n3)on2)cc1` has a melting point of 269 to 270 °C. For `CCOc1ccccc1CNc1c(C#N)ccnc1C(N)=O`, the melting point was 150 to 152 °C. `Cc1cc(NS(=O)(=O)c2ccc(NCNc3ccc(S(=O)(=O)Nc4cc(C)on4)cc3)cc2)no1` showed a melting point of 180 to 188 °C. `CC1(C)COC(c2cc(I)cc(C(F)(F)F)c2)=N1` showed a melting point of 73 to 74.5 °C. With `Cc1nnc2n1-c1ccccc1C(c1ccc(Cl)cc1)=NN2Cc1ccc(NC=O)cc1` the melting point was 215 to 216 °C. With `N#Cc1ccccc1NC(=O)c1ccc(-n2nc(C(F)(F)F)cc2C(F)(F)F)cc1` the melting point was 203 to 205 °C.
